Experimental data taken from US6767891B2, “Peptides with wound healing activity” (priority 2000, dated 2004).
Where no end group is shown, it is not given here.

Tests used:
[1] = tested on: normal human vascular endothelial cells (NHVEC); assay: Boyden chamber migration assay; type: cell-based; details: for cell migration over migration in the presence of media alone / migration response compared to positive controls VEGF, PDGF, FGF: 100 ng/ml; for concentration of maximal effect on migration: dose response
Protocol: The effects of TB4 and TA1 on endothelial cell migration were determined. To investigate the possibility that these peptides effect the migration of normal human vascular endothelial cells (NHVEC) in vitro, a Boyden chamber migration assay was performed.
In the experiments of Table 1 and FIG. 1, normal human […] endothelial cells are used at 5×10^4 cells per well. The wells are coated with 100 μg/ml […] Type IV.

[2] = tested on: venous stasis ulceration; assay: Clinical course of Patient 1, shin ulcer; type: in vivo, human
Excerpt: The injury started with a bruise on the left shin, but approximately seven weeks later the area started to get erythematous. The patient was sent by the general internist to the local hospital wound healing center, where the wound was debrided and Silvadene cream was used. However, the patient was not progressing well and grafting was considered. […] The underlying problem was venous stasis with the development of ulceration secondary to minor trauma. The ulcer was about 3.0 cm by 1.0 cm in size with a 1-cm rim of mild erythema. […] The patient was given a preparation containing TA1 to be used twice daily to the small 4 mm area.
The treatment with TA1 was continued for another week twice daily.
At this point, treatment was changed to a preparation containing TB4 to be applied twice daily to the entire ulcer.
After the entire ulcer had been treated for seven days with TB4 twice daily, it was noted that the size of the ulcer was starting to reduce. The wound center physician was concerned about infection (cellulitis around the ulcer). The patient was placed on oral antibiotics for 10 days. However, when the surrounding erythema was palpated, there was no tenderness. The wound appeared to be repairing and increasing the vascular flow to the ulcer base and surrounding skin. The patient felt that after treating the entire for seven days they improved by 40%. The patient was given more preparation containing TB4 for the next week. The internist felt that the patient should not undergo surgery for grafting due to cardiac problems in view of the improvement in the wound.

[3] = tested on: healed wound erythema, melanin pigmentation; assay: Clinical effects of TB4 in vivo (erythema, pigmentation)
Excerpt: There was not post-inflammatory erythema and hyperpigmentation. Frequently, the skin color was normal and not the expected deep red-purple with brown coloration that would take months to resolve on the leg.
Another effect seen is the reduction of melanin pigmentation on the areas of treatment with TB4.

[4] = tested on: endothelial cells; assay: MTT (tetrazolium) endothelial cell proliferation assay; type: cell-based; details: 10 ng/ml; 4 hours and 24 hours
Protocol: The effects of TB4 and TA1 on endothelial cell proliferation were determined using a MTT (tetrazolium) assay. The results are shown in FIG. 2 for 4 hours and 24 hours and for three concentrations of these peptides, 10 ng/ml, 100 ng/ml, and 1000 ng/ml. […] At a concentration of 10 ng/ml, TB4 and TA1 maximally stimulated cell proliferation approximately 2-fold and 3-fold over that of the control, respectively.

[5] = tested on: NHVEC; assay: scratch wound closure assay; type: cell-based, human; details: 10 ng/ml, scratched confluent monolayer
Protocol: To examine the effects of TB4 and TA1 (10 ng/ml) on NHVEC migration, a scratch would closure assay was used.

[6] = tested on: ulcerations of fingers secondary to burns, diabetes mellitus; assay: Clinical course of Patient 2, finger ulcerations; type: in vivo, human
Protocol: The glucose levels of the patient were not kept under control. The patient developed heat burns with blistering and erosions on the patient's fingers. The ulcers are cleansed and Silvadene cream is used for wound healing, which usually takes 2-4 weeks. Occasionally, systematic antibiotics are given.
The patient was seen after having burned the distal phalanx of the left middle finger with a hairdryer 10 days before. The patient had taken some leftover Ceftin 250 mg twice daily and has used Silvadene cream twice daily for the 10 days, but the ulcer would not heal. The ulcer was debrided and the patient was given a preparation containing TA5 to use on the ulcer base twice daily. This ulcer was on the lateral thenar side of the left middle finger.
Approximately six weeks later, the patient had developed new ulcerations of the right index finger on the palmar-ventral side (5 days), and two ulcerations on the right middle finger on the distal digit, lateral thenar side (5 days) and the second digit on the dorsal side (2 weeks history). These ulcerations had developed after the patient had handled hot items. Dicloxacillin (500 mg twice daily) was given for 10 days. The patient was given TB4 wound healing preparation to be used twice daily to the ulcerations.

[7] = Isoelectric point of peptide; type: physicochemical
[8] = tested on: full thickness punch wounds in rat skin; assay: Wound healing in vivo, full thickness punch wounds
Protocol: To study the effect of TA1 on wound healing in vivo, full thickness punch wounds were made in rat skin and treated with TA1 topically or by intraperitoneal injection with a seven-day study interval. For topical treatment, 5 μg of TA1 was applied in 50 μl saline on injury date and 48 hours post-injury. For intraperitoneal treatment, 60 μg of TA1 was administered in 300 μl saline on injury date and then every other day.

[9] = tested on: chronic wounds; assay: Pilot study in humans with chronic wounds, collagen synthesis; type: in vivo, human; details: 20 volunteers, biopsies at baseline and two months, preliminary results
Protocol: A pilot study of TA1 and TA5 was performed in humans with 20 volunteers with chronic wounds. Skin biopsies were taken at the baseline and at two months, subjected to histological analysis, immunohistological analysis, and objective and subjective observation. Immunohistochemistry endpoints were epidermal differentiation, epidermal proliferation, and markers of inflammation and were assayed by using anti-CD3 monoclonal antibody.

[10] = 10 μg/ml, 5×10^4 cells per well

Row | Substance | Cell Number per HPF, Chamber 1 ([1]; 0.1 μg/ml) [per HPF] | Cell Number per HPF, Chamber 2 ([1]; 0.1 μg/ml) [per HPF] | Cell Number per HPF, Chamber 3 ([1]; 0.1 μg/ml) [per HPF] | Cell Number per HPF, Mean ([1]; 0.1 μg/ml) [per HPF] | cell migration over migration in the presence of media alone [1] | migration response compared to positive controls VEGF, PDGF, FGF [1] | Cell Number per HPF, Chamber 1 ([1]; 0.5 μg/ml) [per HPF] | Cell Number per HPF, Chamber 2 ([1]; 0.5 μg/ml) [per HPF] | Cell Number per HPF, Chamber 3 ([1]; 0.5 μg/ml) [per HPF] | Cell Number per HPF, Mean ([1]; 0.5 μg/ml) [per HPF] | Cell Number per HPF, Chamber 1 ([1]; 1 μg/ml) [per HPF] | Cell Number per HPF, Chamber 2 ([1]; 1 μg/ml) [per HPF] | Cell Number per HPF, Chamber 3 ([1]; 1 μg/ml) [per HPF] | Cell Number per HPF, Mean ([1]; 1 μg/ml) [per HPF] | Cell Number per HPF, Chamber 1 ([1]; 5 μg/ml) [per HPF] | Cell Number per HPF, Chamber 2 ([1]; 5 μg/ml) [per HPF] | Cell Number per HPF, Chamber 3 ([1]; 5 μg/ml) [per HPF] | Cell Number per HPF, Mean ([1]; 5 μg/ml) [per HPF] | Cell Number per HPF, Chamber 2 ([1]; 10 μg/ml) [per HPF] | Cell Number per HPF, Chamber 3 ([1]; 10 μg/ml) [per HPF] | further results
1 | Ac-ANKGQAPGEAMKPSFLKEKKEVVERSKEEEGPAKMNLVIEMPKD (Ac-ANKGQAPGEAMKPSFLKEKKEVVERSKEEEGPAKMNLVIEMPKD) [TB4] | 18 | 12 | 26 | 19 | significantly enhanced cell migration | heightened responses | 33 | 39 | 50 | 41 | 45 | 47 | 63 | 52 | 55 | 65 | 57 | 59 | 77 | 66 | Cell Number per HPF, Mean ([1]; 10 μg/ml): 71 per HPF; Cell Number per HPF, Chamber 1 [1, 10]: 70 per HPF; concentration of maximal effect on migration [1]: 100 ng/mL; size of the ulcer ([2]; after another seven days (14 days), peripheral islands of healing): size of the ulcer was the same; improvement felt by the patient ([2]; after treating entire ulcer for seven days): 40%; status of ulcer ([2]; another seven days after FIG. 11): almost completely closed; status of ulcer ([2]; another two weeks, once daily, FIG. 12): no ulceration; clinical intensity of brown melasma, lentigines, post-inflammatory hyperpigmentation and ephelides ([3]; areas of treatment): definite reduction in the clinical intensity; effect on erythema of the healed wound ([3]; e.g. on the shin): reducing the erythema of the healed wound; erythema of poikiloderma vasculare of the neck secondary to chronic sun exposure ([3]; evaluation not continued): erythema was reducing; maximal stimulation of cell proliferation over that of the control [4]: approximately 2 fold; migration of cells into the wounded area compared to media alone [5]: significantly increased; ulcers cleared ([6]; another five days (12 days)): approximately 90%; improvement in the ulcerations ([6]; one week, twice daily, dicloxacillin also given): 70-80%
2 | Ac-SDAAVDTSSEITTKDLKEKKEVVEEAEN [TA1] | 38 | 45 | 33 | 39 | significantly enhanced cell migration | heightened responses | 52 | 53 | 57 | 54 | 64 | 69 | 43 | 59 | 35 | 64 | 72 | 57 | 55 | 66 | Cell Number per HPF, Mean ([1]; 10 μg/ml): 57 per HPF; Cell Number per HPF, Chamber 1 [1, 10]: 51 per HPF; concentration of maximal effect on migration [1]: 100 ng/mL; isoelectric point [7]: 4.1; status of ulcer ([2]; after 1 week, twice daily to the small 4 mm area): improvement was noted; deeper 4 mm area of the ulceration ([2]; after 2 weeks, twice daily): now level with the rest of the ulcer; maximal stimulation of cell proliferation over that of the control [4]: ~3 fold; migration of cells into the wounded area compared to media alone [5]: significantly increased; 4-day post-injury findings: capillary ingrowth and collagen deposition ([8]; 4-day post-injury): increased capillary ingrowth and collagen deposition; 4-day post-injury findings: reepithelialization, wound contraction, keratinocyte migration ([8]; 4-day post-injury): accelerated reepithelialization, wound contraction, and keratinocyte migration; decrease in wound width versus normal saline control ([8]; intraperitoneal 60 μg, p 0.0001 four-day, p 0.08 seven-day): 42%±9%; decrease in gap size versus normal saline (NS) control ([8]; intraperitoneal 60 μg, p 0.0007 for four-day and seven-day results): 42%±9%; decrease in wound width versus normal saline (NS) control ([8]; topical 5 μg, p 0.0001 four and seven-day results): 15%; decrease in gap size versus normal saline (NS) control ([8]; topical 5 μg, significant for seven-day results (p 0.04)): 18%±12%; stimulating collagen synthesis compared with tretinoin and vitamin C [9]: more effective in stimulating collagen synthesis than tretinoin or vitamin C
3 | KKLKKEENPLELKEKLKEKKNPLPSKEEEKASPFDKI -T-E-T-P-D-M-S [TA5] | – | – | – | – | – | – | – | – | – | – | – | – | – | – | – | – | – | – | – | – | new shallow ulceration resolved ([6]; one week, twice daily): approximately 70%; status of ulcer, left middle finger ([6]; one week, twice daily on ulcer base): dramatic improvement of the ulcer base; older, deeper ulceration healing ([6]; two weeks, twice daily): healing more rapidly than previously; stimulating collagen synthesis compared with tretinoin and vitamin C [9]: more effective in stimulating collagen synthesis than tretinoin or vitamin C
4 | VEGF [reference compound] | – | – | – | – | – | – | – | – | – | – | – | – | – | – | – | – | – | – | – | – | Cell Number per HPF, Chamber 1 ([1]; 10 ng/ml, positive control): 88 per HPF; Cell Number per HPF, Chamber 2 ([1]; 10 ng/ml, positive control): 95 per HPF; Cell Number per HPF, Chamber 3 ([1]; 10 ng/ml, positive control): 97 per HPF; Cell Number per HPF, Mean ([1]; 10 ng/ml, positive control): 93 per HPF
